Data on eight molecules can be found in patent US20010044449A1, “REMEDIES FOR DRUG ADDICTION” (priority 1997, published 2001).

Structures can show the parent of a compound that is named as a salt. Marks after values point to notes of the source that are not given here.

The test system of data set [1] is Sprague Dawley strain (SD strain) male rats. As to the kind of experiment: Conditioned place preference (CPP) method, psychic dependence induced by cocaine.
Data set [2] has the same test system. As to the kind of experiment: Conditioned place preference (CPP) method, psychic dependence induced by morphine. To be noted: for Psychic dependence and aversion of compound alone (period in drug- or solvent-conditioned box): compound alone vs solvent control group.
For data set [3], the system named is dopamine release in the nucleus accumbens. As to the kind of experiment: High K+ stimulated dopamine release from nucleus accumbens slices (HPLC-ECD). Format: cell-based. The conditions noted are these: rat nucleus accumbens slices, 20 mM high K+ stimulation; FIG. 11.
The test system of data set [4] is Rats. As to the kind of experiment: Cocaine drug discrimination test (feeding behavior with lever pressing). Format: in vivo, rat.
The subject of data set [5] is ddY strain male mouse. Nature of the data set: Naloxone-induced withdrawal syndrome in morphine-dependent mouse (physical dependence). The conditions noted are these: for Blepharoptosis: numbers of mouse manifesting withdrawal syndrome/numbers of total mouse / Diarrhea: numbers of mouse manifesting withdrawal syndrome/numbers of total mouse / Fore paw tremor: numbers of mouse manifesting withdrawal syndrome/numbers of total mouse / Jumping: numbers of mouse manifesting withdrawal syndrome/numbers of total mouse / Rearing: numbers of mouse manifesting withdrawal syndrome/numbers of total mouse / Wobbling: numbers of mouse manifesting withdrawal syndrome/numbers of total mouse: naloxone 3 mg/kg. Format: in vivo.

The subject of data set [6] is SD strain male rats. As to the kind of experiment: Mecamylamine-induced nicotine withdrawal aversion (CPP operant boxes). Format: in vivo, rat. The protocol: Animals used were SD strain male rats in this experiment. Experiments used were CPP operant boxes. Experiments were performed by using an aversive model in a nicotine withdrawal syndrome induced by mecamylamine, that is, a nicotine receptor antagonist. (Tsutomu Suzuki, Molecular Medicine, 32, 140 (1995); Suzuki, T. et al., Eur. J. Pharm., 314, 281 (1996); Maldonado, R. et al., J. Pharmacol. Exp. Ther., 261, 669 (1992)). Mini-osmotic pump (Alzet 2001) injected with nicotine (1 μl/hr, for seven days) was implanted under dorsal skin of the rats. An aqueous solution at a concentration of 121.4 mg/ ml was prepared so that a nicotine dose was adjusted to 10 mg/kg/day. Then, the aqueous solution was filled into the mini-osmotic pump. The rats were given conditioning training by the following counter-balance method. In the morning of the seventh day after the implantation of the mini-osmotic pump, mecamylamine (1 mg/ml), that is, nicotine receptor antagonist or physiological saline was subcutaneously injected. Then, the rats were placed in one compartment for 60 minutes. […] The periods in which the rats remained in each compartment colored white or black were measured for 15 minutes.

In data set [7] the test system is rats with nicotine dependence. The conditions noted are these: Malin et al. 1993; cited from earlier work.
The test system of data set [8] is chronic smokers. To be noted: for three hours, double blind and cross-over test vs placebo; Karras et al. 1980; cited from earlier work.
The mark [9] stands for this setting: cocaine 10 mg/kg i.p. in combination with compound 0.1 mg/kg s.c., FIGS. 5 and 6.
Setting [10] is: morphine 3 mg/kg s.c. in combination with compound 0.1 mg/kg s.c., FIGS. 1 and 2.
Where [11] appears, read: Compound 3 0.003 mg/kg s.c. with morphine.
Where [12] appears, read: Compound 3 0.01 mg/kg s.c. with morphine.
The mark [13] stands for this setting: Compound 3 0.03 mg/kg s.c. with morphine.

Take “17-(cyclopropylmethyl)-3,14β-dihydroxy-4,5α-epoxy-6β-[N-methyl-trans-3-(methoxycinnamide) morphinan tartrate [Compound 5]”: in data set [1] (setting [9]), the “Development of drug dependence induced by cocaine (period rats remained in drug-conditioned box)” value is reported as “inhibited the development of drug dependence induced by cocaine”. Besides, in data set [1], the “Psychic dependence and aversion of compound alone (period in drug- or solvent-conditioned box)” value (“Psychic dependence and aversion” below) was “did not produce psychic dependence and aversion”.
As for `CN(C(=O)C#Cc1ccc(C(F)(F)F)cc1)[C@@H]1CC[C@@]2(O)[C@H]3Cc4ccc(O)c5c4[C@@]2(CCN3CC2CC2)[C@H]1O5.O=C(O)/C=C\C(=O)O` [Compound 1, 17-(cyclopropylmethyl)-3,14β-dihydroxy-4,5α-epoxy-6β-[N-methyl-3-(4-trifluoromethylphenyl)propiolamide] morphinan maleate], the “Psychic dependence and aversion” value in data set [2] was “did not develop psychic dependence and aversion”; in data set [1], “did not produce psychic dependence and aversion”. In addition, the “Development of drug dependence caused by morphine (period rats remained in drug-conditioned box)” value in data set [2] (setting [10]) is “inhibited the development of drug dependence caused by morphine”. In addition, the “Development of drug dependence induced by cocaine (period rats remained in drug-conditioned box)” value in data set [1] (cocaine 4 mg/kg i.p. in combination with Compound 1 0.2 mg/kg i.p., FIG. 7) is “inhibited the development of drug dependence induced by cocaine”.
With `Cc1cccc(/C=C/C(=O)N(C)[C@@H]2CC[C@@]3(O)[C@H]4Cc5ccc(O)c6c5[C@@]3(CCN4CC3CC3)[C@H]2O6)c1` [Compound 2, 17-(cyclopropylmethyl)-3,14β-dihydroxy-4,5α-epoxy-6β-(N-methyl-3-methylcinnamide) morphinan hydrochloride], in data set [2], the “Psychic dependence and aversion” value was “did not develop psychic dependence and aversion”. For the same molecule, in data set [2] (setting [10]), the “Development of drug dependence caused by morphine (period rats remained in drug-conditioned box)” value is on record as “inhibited the development of drug dependence caused by morphine”.
For `CN(C(=O)/C=C/c1ccoc1)[C@@H]1CC[C@@]2(O)[C@H]3Cc4ccc(O)c5c4[C@@]2(CCN3CC2CC2)[C@H]1O5` [Compound 3, 17-(cyclopropylmethyl)-3,14β-dihydroxy-4,5α-epoxy-6β-[N-methyl-trans-3-(3-furyl)acrylamide] morphinan hydrochloride], the “Psychic dependence and aversion” value in data set [2] is “did not produce psychic dependence and aversion”. Also, the “Development of drug dependence caused by morphine (period rats remained in drug-conditioned box)” value in data set [2] (morphine 5 mg/kg s.c. in combination with Compound 3 0.1 or 0.03 mg/kg s.c., FIG. 3) is “inhibited the development of drug dependence caused by morphine”. Besides, the “Dopamine release in the nucleus accumbens” value in data set [3] is on record as “inhibited dopamine release in the nucleus accumbens”. The “Rates of feeding behavior with lever pressing (cocaine discrimination)” value in data set [4] (Compound 3 10 μg/kg with cocaine 1.25, 2.5, or 5 mg/kg vs saline + cocaine, FIG. 8) is given as “significantly decreased”. In addition, the “Inhibitory effect of cocaine discrimination” value in data set [4] (Compound 3 20 μg/kg with cocaine, compared with 10 μg/kg) is “enhanced”. Further, the “Incidence rates of jumping, shaking, and diarrhea” value in data set [5] (0.03 mg/kg, compared with morphine alone group) is on record as “significantly decreased”. Besides, in data set [5] (0.01 or 0.03 mg/kg, compared with morphine alone group, FIG. 4), the “Body weight reduction (withdrawal)” value was “significant suppression of body weight reduction”. Further, in data set [5] (setting [11]), the “Blepharoptosis: numbers of mouse manifesting withdrawal syndrome/numbers of total mouse” value was 10/10, the “Diarrhea: numbers of mouse manifesting withdrawal syndrome/numbers of total mouse” value is listed as 7/10, the “Fore paw tremor: numbers of mouse manifesting withdrawal syndrome/numbers of total mouse” value was 9/10 and the “Jumping: numbers of mouse manifesting withdrawal syndrome/numbers of total mouse” value is recorded as 3/10. Also, in data set [5] (setting [11]), the “Rearing: numbers of mouse manifesting withdrawal syndrome/numbers of total mouse” value is 10/10 and the “Wobbling: numbers of mouse manifesting withdrawal syndrome/numbers of total mouse” value is 7/10. Besides, in data set [5] (setting [12]), the “Blepharoptosis: numbers of mouse manifesting withdrawal syndrome/numbers of total mouse” value is 10/10, the “Diarrhea: numbers of mouse manifesting withdrawal syndrome/numbers of total mouse” value was 6/10, the “Fore paw tremor: numbers of mouse manifesting withdrawal syndrome/numbers of total mouse” value is given as 10/10 and the “Jumping: numbers of mouse manifesting withdrawal syndrome/numbers of total mouse” value was 5/10. Also, in data set [5] (setting [12]), the “Rearing: numbers of mouse manifesting withdrawal syndrome/numbers of total mouse” value is 7/10 and the “Wobbling: numbers of mouse manifesting withdrawal syndrome/numbers of total mouse” value is listed as 5/10. In data set [5] (setting [13]), the “Blepharoptosis: numbers of mouse manifesting withdrawal syndrome/numbers of total mouse” value is on record as 10/10, the “Diarrhea: numbers of mouse manifesting withdrawal syndrome/numbers of total mouse” value is on record as 3/10*, the “Fore paw tremor: numbers of mouse manifesting withdrawal syndrome/numbers of total mouse” value is on record as 7/10 and the “Jumping: numbers of mouse manifesting withdrawal syndrome/numbers of total mouse” value is listed as 3/10*. Besides, in data set [5] (setting [13]), the “Rearing: numbers of mouse manifesting withdrawal syndrome/numbers of total mouse” value is 8/10 and the “Wobbling: numbers of mouse manifesting withdrawal syndrome/numbers of total mouse” value is given as 3/10*. The Naloxone-induced withdrawal syndrome entry in data set [5] (simultaneous administration with morphine, 0.003-0.03 mg/kg s.c.) is listed as “relieved by the simultaneous administration of Compound 3 in a dose-dependent manner”. Also, the “Aversive effect induced by mecamylamine (nicotine withdrawal)” value in data set [6] (pretreatment 30 μg/kg vs physiological saline pretreatment) was “significantly inhibited the aversive effect”. Further, the “Aversive effect induced by mecamylamine (nicotine withdrawal)” value in data set [6] (pretreatment 10 or 30 μg/kg s.c., 30 minutes before mecamylamine, FIG. 10) is on record as “inhibited by the pretreatment with Compound 3 (10 or 30 μg/kg) in a dose dependent manner”.
For the molecule `Cc1cccc(C#CC(=O)N(C)[C@@H]2CC[C@@]3(O)[C@H]4Cc5ccc(O)c6c5[C@@]3(CCN4CC3CC3)[C@H]2O6)c1` [Compound 4, 17-(cyclopropylmethyl)-3,14β-dihydroxy-4,5α-epoxy-6β-[N-methyl-3-(3-methylphenyl)propiolamide] morphinan hydrochloride], the “Development of drug dependence induced by cocaine (period rats remained in drug-conditioned box)” value in data set [1] (setting [9]) is given as “inhibited the development of drug dependence induced by cocaine”. Besides, in data set [1], the “Psychic dependence and aversion” value is “did not produce psychic dependence and aversion”.
Regarding `CN1CC[C@]23c4c5ccc(O)c4O[C@H]2[C@@H](O)C=C[C@H]3[C@H]1C5` [morphine, reference compound], the “Withdrawal syndrome in rats with nicotine dependence” value in data set [7] is reported as “inhibits the withdrawal syndrome”. For the same molecule, the “Withdrawal syndrome after naloxone administration” value in data set [5] (morphine alone 8 to 45 mg/kg s.c. twice a day for five days, naloxone 3 mg/kg s.c.) is recorded as “withdrawal syndrome was recognized”.
As for `C=CCN1CC[C@]23c4c5ccc(O)c4O[C@H]2C(=O)CC[C@@]3(O)[C@H]1C5` [naloxone], the “Withdrawal syndrome in rats with nicotine dependence” value in data set [7] is given as “accelerates a withdrawal syndrome”. For the same molecule, in data set [8], the “Intake of tobacco of chronic smokers” value is given as “effective for a reduction in intake of tobacco”.
Turning to `Oc1ccc2c3c1O[C@H]1c4[nH]c5c(c4C[C@@]4(O)[C@@H](C2)N(CC2CC2)CC[C@]314)C[C@@]1(O)[C@H]2Cc3ccc(O)c4c3[C@@]1(CCN2CC1CC1)[C@H]5O4` [nor-BNI, norbinaltorphimine, reference compound], the “Antagonism of the inhibitory effect caused by Compound 3” value in data set [2] (pretreatment 3 mg/kg, morphine 5 mg/kg s.c. + Compound 3 0.03 mg/kg s.c.) is “significantly antagonized”. Moreover, the “Antagonism of the inhibitory effect of cocaine discrimination of Compound 3” value in data set [4] (nor-BNI pretreatment, Compound 3 0.02 mg/kg + cocaine, FIG. 9) is “antagonized”.
